# Data as given in PMC8704748, “Repurposing the Trypanosomatidic GSK Kinetobox for the Inhibition of Parasitic Pteridine and Dihydrofolate Reductases” (Pharmaceuticals, 2021).
# Entries after “also recorded” stand apart in the source; their conditions may differ. Like-named read-outs stand apart in the source and are kept apart here.
# Experiments:
# TbPTR1 = target: T1, TbPTR1 (Trypanosoma brucei brucei, UniProt O76290); assay: TbPTR1 inhibition, Cytochrome C coupled spectrophotometric assay; assay type: biochemical; settings: for inhibition at 10 µM: primary screening, read-out: percentage of inhibition TbPTR1; for IC50: recombinant protein, standard errors within ± 10%
# T1 sequence (O76290 1-268): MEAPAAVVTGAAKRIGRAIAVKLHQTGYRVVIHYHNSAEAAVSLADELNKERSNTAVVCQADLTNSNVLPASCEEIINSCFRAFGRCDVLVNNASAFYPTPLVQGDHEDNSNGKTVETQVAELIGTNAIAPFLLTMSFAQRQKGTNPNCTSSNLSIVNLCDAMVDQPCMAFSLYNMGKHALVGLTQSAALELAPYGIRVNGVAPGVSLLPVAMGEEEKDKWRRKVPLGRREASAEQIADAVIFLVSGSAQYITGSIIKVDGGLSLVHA
# L. donovani = system: L. donovani; design: method as in PMID 25740547; settings: parasite growth inhibition, data from open resource GSK database ref 21, cited from earlier work
# TbDHFR-TS = TbDHFR-TS (Trypanosoma brucei brucei, UniProt Q27783); assay: TbDHFR-TS inhibition, spectrophotometric DHF reduction assay (dose-response); assay type: biochemical; settings: recombinant TbDHFR-TS; 40, 20 and 10 µM tested; standard errors within ± 10%
# Chain of TbDHFR-TS (Q27783 whole entry): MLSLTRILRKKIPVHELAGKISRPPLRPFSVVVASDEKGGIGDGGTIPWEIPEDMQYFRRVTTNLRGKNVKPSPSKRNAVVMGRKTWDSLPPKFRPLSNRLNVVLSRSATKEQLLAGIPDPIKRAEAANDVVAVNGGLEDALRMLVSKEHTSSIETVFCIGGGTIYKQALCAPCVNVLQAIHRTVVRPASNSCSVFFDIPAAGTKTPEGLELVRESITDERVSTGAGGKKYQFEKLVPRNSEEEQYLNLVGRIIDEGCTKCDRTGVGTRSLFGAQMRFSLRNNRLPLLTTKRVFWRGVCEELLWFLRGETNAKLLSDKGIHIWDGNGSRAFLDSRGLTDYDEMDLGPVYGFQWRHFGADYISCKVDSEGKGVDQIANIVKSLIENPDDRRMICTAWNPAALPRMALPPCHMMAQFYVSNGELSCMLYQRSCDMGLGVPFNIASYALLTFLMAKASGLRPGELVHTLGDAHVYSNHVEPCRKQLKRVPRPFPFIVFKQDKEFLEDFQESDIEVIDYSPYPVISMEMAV
# LmDHFR-TS = LmDHFR-TS (Leishmania major, UniProt P07382); assay: LmDHFR-TS inhibition, spectrophotometric DHF reduction assay (dose-response); assay type: biochemical; settings: recombinant LmDHFR-TS; 40, 20 and 10 µM tested; standard errors within ± 10%
# Chain of LmDHFR-TS (P07382 whole entry): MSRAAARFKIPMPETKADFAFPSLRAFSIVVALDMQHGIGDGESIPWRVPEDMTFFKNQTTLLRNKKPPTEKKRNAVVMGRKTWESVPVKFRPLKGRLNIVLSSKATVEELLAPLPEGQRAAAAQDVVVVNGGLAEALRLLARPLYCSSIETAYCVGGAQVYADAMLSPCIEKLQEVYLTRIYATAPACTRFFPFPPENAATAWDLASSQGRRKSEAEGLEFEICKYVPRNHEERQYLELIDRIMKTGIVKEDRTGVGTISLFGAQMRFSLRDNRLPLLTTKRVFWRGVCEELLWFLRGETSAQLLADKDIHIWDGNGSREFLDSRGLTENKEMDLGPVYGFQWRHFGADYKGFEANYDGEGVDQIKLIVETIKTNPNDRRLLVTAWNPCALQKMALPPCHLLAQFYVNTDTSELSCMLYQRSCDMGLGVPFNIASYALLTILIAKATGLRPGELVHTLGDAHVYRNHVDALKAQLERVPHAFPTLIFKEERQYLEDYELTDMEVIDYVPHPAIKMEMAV
# LmPTR1 = target: T2, LmPTR1 (Leishmania major, UniProt Q01782); assay: LmPTR1 inhibition, Cytochrome C coupled spectrophotometric assay; assay type: biochemical; settings: for IC50: recombinant protein, standard errors within ± 10%; for inhibition at 10 µM: primary screening, read-out: percentage of inhibition LmPTR1
# T2 sequence (Q01782 1-288): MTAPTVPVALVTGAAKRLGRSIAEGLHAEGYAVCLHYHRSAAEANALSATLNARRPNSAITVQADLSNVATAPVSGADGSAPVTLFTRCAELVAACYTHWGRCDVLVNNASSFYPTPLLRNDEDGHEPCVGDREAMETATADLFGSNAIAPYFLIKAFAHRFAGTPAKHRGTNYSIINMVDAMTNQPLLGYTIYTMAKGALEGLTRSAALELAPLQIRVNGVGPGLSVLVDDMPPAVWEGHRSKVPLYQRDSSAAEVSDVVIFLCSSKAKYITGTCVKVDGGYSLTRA
# T. brucei = system: T. brucei; design: method as in PMID 25740547; settings: parasite growth inhibition, data from open resource GSK database ref 21, cited from earlier work
# T. cruzi = system: T. cruzi; design: method as in PMID 25740547; settings: parasite growth inhibition ref 21; cited from earlier work
inhibition at 10 µM (TbPTR1) [%],IC50 (TbPTR1) [µM],IC50 (TbDHFR-TS) [µM],IC50 (LmDHFR-TS) [µM],IC50 (LmPTR1) [µM],inhibition at 10 µM (LmPTR1) [%],IC50 (TbPTR1; listed as 143606) [µM],IC50 (LmPTR1; listed as 143606) [µM],Structure (SMILES),EC50 (L. donovani) [µM],EC50 (T. brucei) [µM],IC50 TbDHFR (TbDHFR-TS),EC50 (T. cruzi) [µM],IC50 LmDHFR (LmDHFR-TS),EC50 (L. donovani; listed as 143606) [µM],EC50 (T. brucei; listed as 143606) [µM]
51,9.8,> 40,> 40,38.5,,,,Cc1ccc2c(c1)-c1onc(C(=O)N3CCCC[C@H]3c3cccnc3)c1CO2 [TCMDC-143191],> 40,39.8,,,,,
,8.6,9.7,6.9,6.5,,,,CC(c1ccc2c(c1)CCCC2)N(C)c1ncc2c(N)nc(N)nc2n1 (centres unmarked) [TCMDC-143296],1.8,14.2,,,,,
,9.8,11.6,20.1,5.7,,,,CC(c1cc(Cl)cc(Cl)c1)N(C)c1ncc2c(N)nc(N)nc2n1 (centres unmarked) [TCMDC-143297],0.6,35.7,,,,,
,8.1,> 40,> 40,6,,,,COc1ccc(C(C)N(C)c2ncc3c(N)nc(N)nc3n2)cc1F (centres unmarked) [TCMDC-143298],10.8,8.8,did not show any activity,,did not show any activity,,
,35,> 40,25.8,6.7,75,,,O=C1NCCn2ccc(Nc3nc(N[C@H]4CC[C@H](O)CC4)ncc3Cl)c21 [TCMDC-143386],1.4,0.6,,,,,
51,9.8,> 40,> 40,> 40,,,,Cc1nc2c(-c3ncn[nH]3)cc(NC(=O)Cc3ccccc3)cn2c1C [TCMDC-143459],0.5,6.6,,,,,
,33.3,> 40,25,8.5,59,,,CCN(Cc1nc2ccc(C(=O)N3CCN(c4ncccn4)CC3)cc2[nH]1)C1CCCc2cccnc21 (centres unmarked) [TCMDC-143518],3.5,3.8,,,,,
,~6,> 40,19.4,~6,,6.4,6.8,CCCc1nc2nc(N)nc(N)c2cc1CC [TCMDC-143606],~20,~20,,,,27.2,22.5
,7.3,> 40,> 40,8.1,,,,Cc1cc(-c2ccc3ccccc3c2)nc2nc(N)nc(N)c12 [TCMDC-143607],2.7,25.8,,,,,
,7.3,38.2,40,9.3,,,,COc1ccccc1-c1c(C)[nH]c2nc(N)nc(C)c12 [TCMDC-143610],17.9,32.5,,,,,
,8.9,> 40,> 40,9.8,,,,Cc1cc(N(C)C)nc2ccc(Cc3cnc(N)nc3N)cc12 [TCMDC-143611],> 40,5,,,,,

Structure (SMILES),inhibition at 10 µM (TbPTR1) [%],IC50 (TbPTR1) [µM],IC50 (TbDHFR-TS) [µM],IC50 (LmDHFR-TS) [µM],IC50 (LmPTR1) [µM],inhibition at 10 µM (LmPTR1) [%],IC50 (TbPTR1; listed as 143606) [µM],IC50 (LmPTR1; listed as 143606) [µM],EC50 (L. donovani) [µM],EC50 (T. brucei) [µM],IC50 TbDHFR (TbDHFR-TS),EC50 (T. cruzi) [µM],IC50 LmDHFR (LmDHFR-TS),EC50 (L. donovani; listed as 143606) [µM],EC50 (T. brucei; listed as 143606) [µM]
CN(Cc1cc2ccccc2s1)c1ncc2c(N)nc(N)nc2n1 [TCMDC-143232],,10.9,> 40,24.4,5.9,,,,29.5,28.4,not active,,,,
N#Cc1cccc(Nc2nccc(N3CCC(NS(=O)(=O)c4cccc(C#N)c4)CC3)n2)c1 [TCMDC-143249],,13.5,> 40,> 40,6,,,,5.6,6.3,inactive; also recorded: no inhibition,4.2,inactive; also recorded: no inhibition,,
COc1ccc(Oc2ccc(C(C)N(C)c3ncc4c(N)nc(N)nc4n3)cc2)cc1 (centres unmarked) [TCMDC-143295],,7.9,> 40,16.6,6.7,,,,0.06,,not active,,,,
